Measured values reported in patent US12133486B2, “Methods of propagation of arbuscular mycorrhizal fungi (AMF) and uses thereof” (Terra Microbes, LLC, priority 2021, dated 2024).

Tests used:
[1] = tested on: AMF infections of western wheatgrass (Pascopyron smithii) roots; assay: Field plot study: AM fungal infection of western wheatgrass roots; type: in vivo; details: for AM Infection t = 0 days / AM Infection t = 47 days / AM Infection t = 97 days: western wheatgrass roots, field plots, mean n = 3; for AM Infection t = 0 days: first sampling; for AM Infection t = 97 days: third sampling
Excerpt: (§1) Twelve plots of size 50 cm by 50 cm were established on a homogenous site 2.54 meters (running northeast and southwest) by 4.06 meters (running southeast and northwest). Plant distribution was mostly homogeneous across the entire site, with western wheatgrass dominant. The plots were in four rows with three plots in each row. Within a row plots were 25 cm apart. Rows were 50 cm apart. An experimental unit was one plot. Treatments were replicated three times. Treatments included: controls (no treatment), potassium chloride treatment, potassium phosphate treatment, and potassium phosphite treatment. (See, FIG. 2).
(§2) Treatments: All plots received the same amount of solution. The control plots were treated with distilled water only (6.375 L). The KCl plots treated with distilled water containing the same amount of K as was needed to convert the phosphorous acid (H3PO3) to dipotassium phosphite (K2HPO3). The phosphate plots were treated with sufficient dipotassium phosphate (K2HPO4) to deliver 3 g of P per plot dissolved in the same amount of distilled water as the control plots received and the KCl plots received. The phosphite plots were treated with sufficient dipotassium phosphite (K2HPO3) to deliver 3 g of P per plot dissolved in the same amount of distilled water as the control plots received, the KCl plots received and the phosphate plots received.
The field experiment reported in this example was conducted during June through October. Plots were established during early June and treated on the 15th and 16th day (as in Example 3 above). […] Sample size and depth was as detailed above in Example 3.
Analyses of infections were performed by examining roots of wheatgrass (Pascopyron smithii). This plant was the dominant plant in all of the plots and is known to be commonly infected with AM fungi. (See, Loree M. A. J. and Williams S. E., New Phytologist, 106:735-744, 1987; and Wang B. and Qui Y.-L. 2006, Ibid.). During sampling of soils using the methodology outlined in Example 3, above, root of target plants were removed and separated by plant species, each sample being labeled and preserved in FAA solution until being further processed.
Staining of the roots was achieved according to published procedures (see, Phillips J. M. and Hayman D. S., Trans. Brit. Mycological Soc., 55:158-160, 1970) except that cotton blue lactophenol was substituted with lactic acid glycerol with trypan blue since lactophenol is toxic. The procedure used for staining was as follows: • A) Remove roots from FAA Solutions. Cut into 1 cm lengths. Place in test tube, push roots to the bottom of the test tube. • B) Cover roots with 10% KOH (10 grams of reagent grade KOH in enough distilled water to 100 ml). Let stand overnight, about 10 hours. • C) Simmer at 90° C. for one hour in a water bath (container with water and test tubes with roots over a heat source). • D) Rinse in tap water. • E) Rinse five minutes in 0.1 N HCl (3.65 […] of HCl in 1000 ml total volume with distilled water). • F) Rinse in tap water. • G) Simmer at 90° C. one hour (in water bath) in Trypan blue Lactic Acid Glycerol (distilled water, 100 ml; lactic acid (reagent grade 85 to 88%) 100 ml; glycerin (reagent grade 85% also listed as glycerol), 200 ml; trypan blue, 0.1 grams (60% dye content). • H) Rinse in tap water. • I) Place in clear lactic acid glycerol (same formulation as above except without the Trypan blue) if destaining is necessary. Samples can be simmered at 90° C. (one hour in water bath) or left at room temperature for at least 72 hours or longer. • J) Mount on standard glass slide (2.5 cm by 7.6 cm) in lactic acid glycerol. Cover slip (2.3 cm by 4.8 cm) used.
An estimate of the degree of infection of western wheatgrass was made by making microscopic scans of each slide such that 40 root segments were evaluated. The evaluation was performed using the 20× objective, e.g., 200× total magnification—eyepieces were 10× multiplied by the objective magnification. […]

[2] = tested on: AM fungi; assay: Field plot study: AMF spore counts in soil around western wheatgrass roots; type: in vivo; details: field plots; for Total Spores t = 47 days / Total Spores t = 0 days: mean n = 3, P added at 120 kg/ha (KCl: same K); for Total Spores t = 47 days / spore numbers compared with the control: second sampling; for Total Spores t = 0 days: t = 0 = first sampling, 14 days after treatment; for spore numbers compared with the control: t = 47
Excerpt: as §1
In this study phosphorus, either as phosphate or phosphite, was added at a rate of 120 kg of P per hectare (ha). Scaled down this equates to 3 grams of phosphorous per plot. One ha is 10,000 m^2. Each plot is 50 cm by 50 cm, or 0.25 m^2. The subsequent calculation then is 120 Kg/10,000 m^2=X/0.25 m^2; X=3.00 grams of P per plot. (See Table 2).
as §2
The field experiment reported in this example was conducted during June through October. Plots were established during early June and treated on the 15th and 16th day (as in Example 3 above). The first soil and root sampling was performed 14 days later (t=14). The second set of samples were taken 47 days later (t=61), and the third set 60 days later (t=121 days). Sample size and depth was as detailed above in Example 3.
AMF spores were evaluated in soil samples from which plant roots including plant roots of western wheatgrass had existed and had been removed. Evaluations were performed on the T=0 and the T=47 samples. These evaluations generally entailed mixing the sample with water, centrifugation, and decanting water. This step was performed to remove light organic matter and other light materials, e.g., leaf fragments. This was followed by mixing the soil with a solution of sodium hexametaphosphate (2%) in 2 M sucrose. Centrifugation results in the spores floating on the sucrose solution or suspended in it. The sucrose solution plus spores is decanted into a separatory funnel. The suspension was allowed to exit the funnel one drop at a time. The spores adhere to the inside of the funnel and once all liquid has exited the funnel the spores are washed into a petri-dish and counted under a dissecting microscope.
The specific protocol for spore extraction was as follows: • A) Weigh 5 g of air dried soil into a 20 ml centrifuge tube. For a complete sample this is replicated four times. • B) Fill each tube with water to ˜1.5 cm of the top. Stir to suspend organic matter and other light debris. Let all tubes stand for 10 minutes. • C) Centrifuge at 2000 rpm (475.2×g) for 10 minutes. Be sure tubes are placed across from each other in the centrifuge and are within 0.1 g of the same weight. • D) Pour off and discard supernatant while stirring surface and rotating tube. • E) If much organic matter and other light material remains, repeat steps B through D. • F) Add sucrose/sodium hexametaphosphate solution (2 molar sucrose containing 2% hexametaphosphate: 684.6 g of sucrose (store grade is adequate) and 20 g of sodium hexametaphosphate in one liter of solution using distilled water) to centrifuge tubes to ˜1.5 cm of top. […]

`OP(O)O` [PO3, dipotassium phosphite] was tested, and the “AM Infection t = 0 days” value [1] was 32Aa Per forty 1.1 mm root segments, the “AM Infection t = 47 days” value ([1]; second sampling) was 31Aab Per forty 1.1 mm root segments and the “AM Infection t = 97 days” value [1] was 39ACc Per forty 1.1 mm root segments. For the same compound, the “Total Spores t = 47 days” value [2] was 17896Ab Per 100 g soil, the “Total Spores t = 47 days” value ([2]; listed as phosphite) was 17,896 Per 100 g soil and the “Total Spores t = 0 days” value [2] was 6429Aa Per 100 g soil. For the same compound, the “spore numbers compared with the control” value [2] was “significant increase in spore numbers from the control”.
With `O=P([O-])([O-])O.[K+].[K+]` [PO4, dipotassium phosphate] the “root infection level compared with control, KCl and phosphite plots” value ([1]; second sampling, t = 47) was “significant increase”, the “AM Infection t = 0 days” value [1] was 31Aa Per forty 1.1 mm root segments and the “AM Infection t = 47 days” value ([1]; second sampling) was 38.7Bbc Per forty 1.1 mm root segments. The “AM Infection t = 97 days” value [1] was 38ACc Per forty 1.1 mm root segments, the “Total Spores t = 47 days” value [2] was 12960Ab Per 100 g soil and the “Total Spores t = 0 days” value [2] was 4998Aa Per 100 g soil. The “spore numbers compared with the control” value [2] was “significant increase in spore numbers from the control”.
